Several values for one entry are separate records, joined by “and”; a condition that tells them apart may be missing. Identical values can stand only once. Entries after “also recorded” stand apart in the source; their conditions may differ. Values belong to the molecule of their own block, whether it stands above or below them.
Tests used:
[1] = test system: ADP-Activated Platelets / resting platelets (platelet rich plasma); assay: Platelet aggregation assay (PRP, Biodata PAP-4 aggregation profiler); type: cell-based, human; conditions: for effect on aggregation of resting platelets: no ADP; for effect on the aggregation of ADP-activated platelets: wide range of ADP concentrations
Method: All platelets used in the in vitro platelet aggregation experiments were isolated from healthy human volunteers who denied ingesting aspirin or aspirin containing compounds within 10 days. Aggregation assays were performed on PRP. Approximately 50 mL of whole blood was collected in aliquots in 4.5 mL vacutainer tubes containing 0.5 mL of 3.8% sodium citrate. PRP was prepared by centrifuging the anticoagulated blood at 200 g for 10 minutes and harvesting the supernatant.
The Biodata 4-channel platelet aggregation profiler (PAP-4; Biodata Corp., Hatboro, Pa.) was blanked using a cuvette containing only platelet poor plasma (PPP). A 350 μL aliquot of PRP, containing approximately 2 to 5×10^8/mL platelets, was added to a cuvette containing a stir bar. Anti-CD40L antibody, human IgG, normal human serum, CD40-Fc, or anti-hFc were added in a total volume of 100 μL. The loaded cuvette was placed in the machine and the reaction components mixed prior to the addition of ADP.
Aggregation was initiated with the addition of sub-optimal concentration of ADP in 50 μL (final concentration varies for each individual sample). The aggregation profiler has four ports, which can run simultaneously. An aggregation tracing was generated for each sample for four minutes following the addition of ADP. At the end of the tracing, the instrument calculates the percentage of aggregation by comparing the transmission of light through the sample to the transmission of light through the PPP blank. A titration was performed at the beginning of each experiment, and subsequent runs were performed at a suboptimal ADP concentration.

[2] = target: T1, CD40L on the platelet surface (Homo sapiens, UniProt P29965); assay: Binding of biotin-conjugated anti-CD40L antibody to platelets (western blotting with HRP-streptavidin); conditions: data not shown
T1 construct: Platelets were incubated with a biotin-conjugated anti-CD40L antibody to determine whether CD40L is present on the surface of platelets; endogenous in cells
T1 sequence (P29965 1-261): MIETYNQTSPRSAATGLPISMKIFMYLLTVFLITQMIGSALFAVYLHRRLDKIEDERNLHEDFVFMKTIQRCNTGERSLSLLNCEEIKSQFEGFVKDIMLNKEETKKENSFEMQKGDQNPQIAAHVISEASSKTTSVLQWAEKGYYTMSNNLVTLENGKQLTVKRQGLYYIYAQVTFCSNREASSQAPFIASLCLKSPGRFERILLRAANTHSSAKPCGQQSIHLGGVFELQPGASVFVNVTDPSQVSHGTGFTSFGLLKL

[3] = result in words, listed as Anti-CD40L antibody

Molecule: BG9588: Research-grade anti-CD40L antibody prepared at Biogen; table column BG9588 corresponds to it
effect on aggregation of cross-linking of antibody bound to CD40L on activated platelets ([1]; 2 μg/mL, cross-linked with anti-hFc (Table 5)): may enhance aggregation under limited conditions
effect on platelet aggregation of anti-CD40L antibody cross-linked by sCD40L ([1]; FIG. 3, 233 μg/mL antibody and 30 μg/mL sCD40L, PRP of ten healthy donors, sub-optimal ADP): affected; also recorded: enhanced aggregation occurred with platelets isolated from some, but not all, healthy donors; also recorded: induced
effect on platelet aggregation together with sCD40L ([1]; FIG. 4, 200 μg/mL with sCD40L 30 μg/mL, 0.75 μM ADP, one donor): specifically enhanced
% of Aggregation ([1]; Table 1, 5 μg/mL, ADP 0.00 μM (resting platelets)): 11%
% of Aggregation ([1]; Table 1, 5 μg/mL, ADP 0.37 μM): 15%
% of Aggregation ([1]; Table 1, 5 μg/mL, ADP 0.70 μM): 24%
% of Aggregation ([1]; Table 1, 5 μg/mL, ADP 2.00 μM): 21%
% of Aggregation ([1]; Table 1, 5 μg/mL, ADP 6.70 μM): 71%
% of Aggregation ([1]; Table 1, 5 μg/mL, ADP 20.00 μM, PRP, four-minute tracing): 72%
% of Aggregation ([1]; Table 2, 5 μg/mL, ADP 0.37 μM): 10%
% of Aggregation ([1]; Table 2, 5 μg/mL, ADP 0.70 μM): 10%
% of Aggregation ([1]; Table 2, 5 μg/mL, ADP 2.00 μM): 12%
% of Aggregation ([1]; Table 2, 5 μg/mL, ADP 6.70 μM): 78%
% of Aggregation ([1]; Table 2, 5 μg/mL, ADP 20.00 μM): 80%
% of Aggregation ([1]; Table 3, 5 μg/mL, ADP 0.00 μM (resting platelets)): 3%
% of Aggregation ([1]; Table 3, 5 μg/mL, ADP 0.30 μM): 10%
% of Aggregation ([1]; Table 3, 5 μg/mL, ADP 0.60 μM): 10%
% of Aggregation ([1]; Table 3, 5 μg/mL, ADP 1.25 μM): 12%
% of Aggregation ([1]; Table 3, 5 μg/mL, ADP 2.50 μM): 62%
% of Aggregation ([1]; Table 3, 5 μg/mL, ADP 5.00 μM): 67%
% of Aggregation ([1]; Table 3, 5 μg/mL, ADP 10.00 μM): 69%
% of Aggregation ([1]; Table 3, 5 μg/mL, ADP 20.00 μM): 68%
% of Aggregation ([1]; Table 4, 1.25 μg/mL, ADP 0.00 μM): 3%
% of Aggregation ([1]; Table 4, 2.50 μg/mL, ADP 0.00 μM): 5%
% of Aggregation ([1]; Table 4, 5.00 μg/mL, ADP 0.00 μM): 3%
% of Aggregation ([1]; Table 4, 10.00 μg/mL, ADP 0.00 μM): 3%
% of Aggregation ([1]; Table 4, 20.00 μg/mL, ADP 0.00 μM): 3%
% of Aggregation ([1]; Table 5, BG9588 2 μg/mL + anti-hFc 2.22 μg/mL, ADP 0.0 μM): 3%
% of Aggregation ([1]; Table 5, BG9588 2 μg/mL + anti-hFc 2.22 μg/mL, ADP 0.5 μM): 8%
% of Aggregation ([1]; Table 5, BG9588 2 μg/mL + anti-hFc 2.22 μg/mL, ADP 1.0 μM): 76%
% of Aggregation ([1]; Table 5, BG9588 2 μg/mL + anti-hFc 6.66 μg/mL, ADP 0.0 μM): 3%
% of Aggregation ([1]; Table 5, BG9588 2 μg/mL + anti-hFc 6.66 μg/mL, ADP 0.5 μM): 8%
% of Aggregation ([1]; Table 5, BG9588 2 μg/mL + anti-hFc 6.66 μg/mL, ADP 1.0 μM): 84%
% of Aggregation ([1]; Table 5, BG9588 2 μg/mL + anti-hFc 20.00 μg/mL, ADP 0.0 μM): 3% and 4%
% of Aggregation ([1]; Table 5, BG9588 2 μg/mL + anti-hFc 20.00 μg/mL, ADP 0.5 μM): 8%
% of Aggregation ([1]; Table 5, BG9588 2 μg/mL + anti-hFc 20.00 μg/mL, ADP 1.0 μM): 83%
% of Aggregation ([1]; Table 5, BG9588 2 μg/mL alone, ADP 0.0 μM): 3%
% of Aggregation ([1]; Table 6, resting platelets, BG9588 2 μg/mL + serum 0.00032x): 6%
% of Aggregation ([1]; Table 6, resting platelets, BG9588 2 μg/mL + serum 0.0016x): 6%
% of Aggregation ([1]; Table 6, resting platelets, BG9588 2 μg/mL + serum 0.008x): 7%
% of Aggregation ([1]; Table 6, resting platelets, BG9588 2 μg/mL + serum 0.04x): 6%
% of Aggregation ([1]; Table 6, resting platelets, BG9588 2 μg/mL + serum 0.2x): 6%
% of Aggregation ([1]; Table 6, resting platelets, BG9588 2 μg/mL + serum 1.0x): 9%
effect on platelet aggregation of cross-linked anti-CD40L antibody ([1]; cross-linked with 2.22 μg/mL anti-hFc, ADP 1.0 μM (Table 5 lines 109 and 110)): increased aggregation
effect on platelet aggregation of cross-linked anti-CD40L antibody ([1]; cross-linked with 20 μg/mL or 6.66 μg/mL anti-hFc): did not affect
enhancing effect on platelet aggregation of cross-linked anti-CD40L antibody ([1]; cross-linked with anti-hFc, lower concentration of ADP): not observed
effect on aggregation of resting platelets [1, 3]: do not induce
effect on aggregation of resting platelets ([1]; result in words, listed as anti-CD40L antibody): not affected
effect on platelet aggregation ([1]; result in words): does not affect
effect on the aggregation of ADP-activated platelets [1, 3]: do not induce the aggregation of resting platelets or affect; also recorded: do not affect
effect on the aggregation of ADP-activated platelets ([1]; result in words, listed as Research-grade anti-CD40L antibody): did not affect
effect on platelets in the presence of normal human serum ([1]; with normal human serum (Table 6)): not affected

effect of preincubation on binding of biotin-conjugated anti-CD40L antibody to activated platelets [2]: inhibited binding
B1: sCD40L: recombinant soluble CD40 ligand prepared at Biogen, cross-linking agent (protein, UniProt P29965 47-261, looked up)
extracellular domain: HRRLDKIEDERNLHEDFVFMKTIQRCNTGERSLSLLNCEEIKSQFEGFVKDIMLNKEETKKENSFEMQKGDQNPQIAAHVISEASSKTTSVLQWAEKGYYTMSNNLVTLENGKQLTVKRQGLYYIYAQVTFCSNREASSQAPFIASLCLKSPGRFERILLRAANTHSSAKPCGQQSIHLGGVFELQPGASVFVNVTDPSQVSHGTGFTSFGLLKL
modifications: extracellular domain
notes: recombinant soluble CD40 ligand prepared at Biogen, cross-linking agent

— patent US9297810B2, “CD40L-binding agent based platelet aggregation assays” (BIOGEN IDEC MA INC., priority 2005, dated 2016)
